Measurements reported in patent US20100216661A1, “Diagnostic Assay” (priority 2007, published 2010).

Tests used:
[1] = system: anti-RhD monoclonal antibody T10 (LHM76/55); test: Biopanning of phage-peptide libraries with anti-RhD T10; format: binding, Human; details: biopanning of phage-peptide libraries with anti-RhD monoclonal T10
Source text: (§1) Three different phage libraries from New England Biolabs. (Ph.D. 7 and Ph.D. 12 displaying linear 7- and 12-mer peptides, respectively and Ph.D. C7C displaying 7-mer peptides constrained by a disulphide bridge at their termini) and a linear 15mer library (kindly provided by Prof. George P. Smith, University of Missouri) were used in biopanning experiments with 10 different monoclonal antibodies and a polyclonal preparation (Table 1).
(§2) For each target antibody/library combination, a separate well of a 96-well Immulon 4 flat-bottomed ELISA plate (Thermo Labsystems) was coated with 5 μg of antibody in 150 μl ELISA coating buffer (15 mM Na2CO3, 35 mM NaHCO3, pH9.6). Plates were sealed and incubated at 4° C. overnight. Unbound antibody was discarded and 350 μl of blocking buffer (0.1M NaHCO3/3% skimmed milk powder) was added to each well. Plates were sealed and incubated for 1 hour at 4° C. The blocking buffer was removed and the wells were washed six times with 300 μl TBS/0.1% Tween 20. Approximately 2×10^11 plaque forming units (pfu) in 100 μl TBS/0.1% Tween 20 were added to each well and the plates were incubated at room temperature for 1 hour. Wells were washed ten times with 300 μl TBS/0.1% Tween 20. Bound phage were eluted by incubation with 100 μl of 0.2M glycine-HCl/BSA, pH2.2 (1 mg/ml) for 10 minutes, then neutralised with 15 μl of 1M Tris-HCL (pH9.1). An aliquot of the Round 1 eluate was removed and titred. The remainder of the eluted phage were amplified by infection of E. coli ER2538 cells for 4.5 hours at 37° C. The cultures were centrifuged for 10 minutes at 10,000 rpm at 4° C. The supernatants were recovered, ⅙ volume PEG/NaCl (20% polyethylene glycol 8000; 2.5M NaCl) added, then incubated overnight at 4° C. The PEG-precipitated phage were centrifuged at 10,000 rpm for 15 minutes at 4° C. The supernatant was removed and the phage pellet resuspended in 200 μl TBS. Two further rounds of panning were undertaken and approximately 2×10^11 pfu of the Round 2 or Round 3 amplified eluates were used as input phage. Round 3 eluates were titrated but not amplified. Individual plaques were amplified and subjected to PCR amplification, prior to DNA sequence analysis. The specificity of peptide-antibody binding was subsequently determined using both phage ELISA and SPOTs techniques.

[2] = system: polyclonal anti-RhD preparation (Human Anti-D Ig); test: Biopanning of phage-peptide libraries with polyclonal anti-RhD; format: binding; details: biopanning of phage-peptide libraries with polyclonal anti-RhD preparation
Source text: as §1, §2

RhD 80 (IPWYKIT)
Panning Antibody (antibody that selected the phage-peptide in biopanning) [1]: RhD T10

RhD 70 (LPWYQLT)
Panning Antibody (antibody that selected the phage-peptide in biopanning) [1]: RhD T10

RhD 48 (QSHYRHISPAQV)
Panning Antibody (antibody that selected the phage-peptide in biopanning) [1]: RhD T10

RhD 79 (LPWYRH)
Panning Antibody (antibody that selected the phage-peptide in biopanning) [1]: RhD T10

RhD 77 (TPLSKST)
Panning Antibody (antibody that selected the phage-peptide in biopanning) [1]: RhD T10

RhD 64 (FHRHWWPPTLST)
Panning Antibody (antibody that selected the phage-peptide in biopanning) [1]: RhD T10

RhD 82 (FHANWPQSARDV)
Panning Antibody (antibody that selected the phage-peptide in biopanning) [2]: RhD

RhD 84 (FHENWSTRPTTR)
Panning Antibody (antibody that selected the phage-peptide in biopanning) [2]: RhD

RhD 65 (RPHLLDWELNPV)
Panning Antibody (antibody that selected the phage-peptide in biopanning) [1]: RhD T10

RhD 56 (VPPWVSVRTGPG)
Panning Antibody (antibody that selected the phage-peptide in biopanning) [1]: RhD T10

RhD 54 (QHKTSITGHLEP)
Panning Antibody (antibody that selected the phage-peptide in biopanning) [1]: RhD T10

RhD 55 (FHRWPTWPLPSP)
Panning Antibody (antibody that selected the phage-peptide in biopanning) [1]: RhD T10

RhD 100 (ATWSHHLSSAGL)
Panning Antibody (antibody that selected the phage-peptide in biopanning) [2]: RhD

RhD 51 (ESLSTDTYAILL)
Panning Antibody (antibody that selected the phage-peptide in biopanning) [1]: RhD T10

RhD 81 (FHSTWPWREAEG)
Panning Antibody (antibody that selected the phage-peptide in biopanning) [2]: RhD

RhD 102 (HSLKHTQMSYSS)
Panning Antibody (antibody that selected the phage-peptide in biopanning) [2]: RhD

RhD 72 (WHPPQPS)
Panning Antibody (antibody that selected the phage-peptide in biopanning) [1]: RhD T10

RhD 68 (LDTYWYREHFRR)
Panning Antibody (antibody that selected the phage-peptide in biopanning) [1]: RhD T10

RhD 89 (FHWRYPLPLPGQ)
Panning Antibody (antibody that selected the phage-peptide in biopanning) [2]: RhD

RhD 53 (STYLNGPTGVDL)
Panning Antibody (antibody that selected the phage-peptide in biopanning) [1]: RhD T10

RhD 69 (VHWRWWDQRVPM)
Panning Antibody (antibody that selected the phage-peptide in biopanning) [1]: RhD T10

RhD 42 (WYHKAPY)
Panning Antibody (antibody that selected the phage-peptide in biopanning) [1]: RhD T10

RhD 52 (HSSWYIQHFPPL)
Panning Antibody (antibody that selected the phage-peptide in biopanning) [1]: RhD T10

RhD 66 (FHWRWSTFPEYP)
Panning Antibody (antibody that selected the phage-peptide in biopanning) [1]: RhD T10

RhD 78 (LPWYATP)
Panning Antibody (antibody that selected the phage-peptide in biopanning) [1]: RhD T10

RhD 75 (TQWYQIA)
Panning Antibody (antibody that selected the phage-peptide in biopanning) [1]: RhD T10

RhD 50 (WHWTFYTPLEST)
Panning Antibody (antibody that selected the phage-peptide in biopanning) [1]: RhD T10

RhD 47 (SMSSMLLAAQTV)
Panning Antibody (antibody that selected the phage-peptide in biopanning) [1]: RhD T10

RhD 59 (WHWRLYSANTP)
Panning Antibody (antibody that selected the phage-peptide in biopanning) [1]: RhD T10

RhD 62 (LWRLRGGSFPVISHG)
Panning Antibody (antibody that selected the phage-peptide in biopanning) [1]: RhD T10

RhD 57 (TLVYQPPWYRIA)
Panning Antibody (antibody that selected the phage-peptide in biopanning) [1]: RhD T10

RhD 73 (FHENWPS)
Panning Antibody (antibody that selected the phage-peptide in biopanning) [1]: RhD T10

RhD 71 (VPWFRAP)
Panning Antibody (antibody that selected the phage-peptide in biopanning) [1]: RhD T10

RhD 63 (RNALHSLRTLSSSWV)
Panning Antibody (antibody that selected the phage-peptide in biopanning) [1]: RhD T10

RhD 58 (FHQRLWWPTHTP)
Panning Antibody (antibody that selected the phage-peptide in biopanning) [1]: RhD T10

RhD 49 (SMSQPKSQVNAH)
Panning Antibody (antibody that selected the phage-peptide in biopanning) [1]: RhD T10

RhD 67 (VWAVSLPWYRYP)
Panning Antibody (antibody that selected the phage-peptide in biopanning) [1]: RhD T10

RhD 41 (WYTKAPY)
Panning Antibody (antibody that selected the phage-peptide in biopanning) [1]: RhD T10

RhD 74 (FWWQVPA)
Panning Antibody (antibody that selected the phage-peptide in biopanning) [1]: RhD T10

RhD 45 (WHWQWTPWSIQP)
Panning Antibody (antibody that selected the phage-peptide in biopanning) [1]: RhD T10

RhD 76 (LPWFQLP)
Panning Antibody (antibody that selected the phage-peptide in biopanning) [1]: RhD T10

RhD 61 (SIWDLPLQYRGFGTS)
Panning Antibody (antibody that selected the phage-peptide in biopanning) [1]: RhD T10

RhD 46 (WHKNWWPPSTPN)
Panning Antibody (antibody that selected the phage-peptide in biopanning) [1]: RhD T10

RhD 44 (HWKHPWGAWDTL)
Panning Antibody (antibody that selected the phage-peptide in biopanning) [1]: RhD T10

Rh0 43 (YYQRAPY)
Panning Antibody (antibody that selected the phage-peptide in biopanning) [1]: RhD T10

RhD 60 (HAAFEPRGDVRHTLL)
Panning Antibody (antibody that selected the phage-peptide in biopanning) [1]: RhD T10
